Laboratory results from publication PMC7099630 (Bioanalysis, 2016).

What was measured:
[1] = Stability of chloroquine in miniature pig plasma QC samples under different storage conditions; type: in vitro ADME
Experimental: Mimic pig plasma samples at LQC and HQC levels were analyzed along with freshly spiked calibration standards to obtain calculated concentrations.
Benchtop stability was evaluated by allowing QC samples to stand for 6 h prior to preparation. Unextracted QC samples were stored at -20°C for 40 days before extraction to test long-term stability. To analyze freeze–thaw stability, QC samples were stored at -20°C and then allowed to thaw to room temperature for three cycles. Processed QC samples were allowed to stand in the autosampler for 24 h before analysis to determine whether an occasional delay in injection, or reinjection of extracted samples, would lead to degradation.

[2] = as above; type: in vitro ADME; details: miniature pig plasma (spiked QC samples), plasma QC standing prior to preparation, read-out: Benchtop stability (8 h), Recovery (mean ± SD, %)
[3] = Stock solution stability of chloroquine; type: physicochemical; details: 40 days at -20°C vs freshly prepared, read-out: Solution stability (40 day), Recovery (mean ± SD, %)
[4] = PK study in Wuzhishan miniature pigs after a single oral dose, plasma by HILIC-MS/MS; type: in vivo, Wuzhishan miniature pig; details: average, single oral dose 0.2 g
Experimental: Two ordinary grade, healthy, Wuzhishan miniature pig (6–8 months old, 7–9 kg) were purchased from Pearl Laboratory Animal Sci. & Tech. Co., Ltd (Dongguan, China) and maintained on standard food and water. The pigs were housed in individual cages and identified by ear tags. […] Blood samples (1.5 ml) were collected in heparinized tubes via the precaval or pelvic vein before medication and 0.5, 1, 2, 4, 6, 8, 12, 24, 36, 48, 72, 96 and 120 h after drug administration. All blood samples were immediately centrifuged at 2000 × g for 15 min (Centrifuge 5418, Eppendorf) and then stored at −70°C before analysis. The maximum plasma concentration (Cmax) and time of occurrence (tmax) were read directly from the concentration-time curve. Other PK parameters were calculated with DAS 3.2.4 software, using a noncompartmental model.

[5] = healthy miniature pigs, noncompartmental model

- stability of prepared samples after storage in the autosampler ([1]; 24 h in autosampler): stable
- time stable during bench top preparation ([1]; miniature pig plasma): at least 6 h
- time stable on storage at −20°C ([1]; miniature pig plasma): at least 40 days
- recovery at 75 ng/ml ([1]; miniature pig, miniature pig plasma (spiked QC samples), HQC (75 ng/ml), -20°C to room temperature, three cycles, read-out: Freeze–thaw stability (3 cycles), Recovery (mean ± SD, %)): 106 ± 1.07%
- recovery at 40 day, 75 ng/ml ([1]; miniature pig, miniature pig plasma (spiked QC samples), HQC (75 ng/ml), unextracted plasma QC stored at -20°C for 40 days, read-out: Long-term stability (40 day), Recovery (mean ± SD, %)): 104.3 ± 1.04%
- recovery at 3 ng/ml ([1]; miniature pig, miniature pig plasma (spiked QC samples), LQC (3 ng/ml), -20°C to room temperature, three cycles, read-out: Freeze–thaw stability (3 cycles), Recovery (mean ± SD, %)): 106 ± 9.74%
- recovery at 40 day, 3 ng/ml ([1]; miniature pig, miniature pig plasma (spiked QC samples), LQC (3 ng/ml), unextracted plasma QC stored at -20°C for 40 days, read-out: Long-term stability (40 day), Recovery (mean ± SD, %)): 106 ± 3.35%
- recovery at 24 h, 75 ng/ml ([1]; miniature pig, HQC (75 ng/ml), processed samples in autosampler for 24 h, read-out: Processed stability (24 h), Recovery (mean ± SD, %)): 105.7 ± 0.34%
- recovery at 24 h, 3 ng/ml ([1]; miniature pig, LQC (3 ng/ml), processed samples in autosampler for 24 h, read-out: Processed stability (24 h), Recovery (mean ± SD, %)): 98.9 ± 1.08%
- recovery at 8 h, 75 ng/ml ([2]; HQC (75 ng/ml)): 103.5 ± 1%
- recovery at 8 h, 3 ng/ml ([2]; LQC (3 ng/ml)): 104 ± 1.33%
- recovery at 40 day, 75 ng/ml ([3]; HQC (75 ng/ml)): 103 ± 2.46%
- recovery at 40 day, 3 ng/ml ([3]; LQC (3 ng/ml)): 102 ± 6.75%
- AUC(0-inf) ([4]; Wuzhishan miniature pig, pig, plasma, healthy miniature pigs, noncompartmental model): 380 ng·h/mL
- half-life ([4]; Wuzhishan miniature pig, pig, plasma, healthy miniature pigs, noncompartmental model, read-out: elimination t1/2 (converted)): 16.9 h
- Cmax ([4]; Wuzhishan miniature pig, pig, healthy miniature pigs (two animals), plasma): 15 ng/mL
- Tmax ([4]; Wuzhishan miniature pig, pig, healthy miniature pigs, plasma): 3 h
- CL/F [4, 5]: 54.15 L/h
- V/F [4, 5]: 1543.82 L
Compound: CCN(CC)CCCC(C)Nc1ccnc2cc(Cl)ccc12 (stereo not shown) [chloroquine, N’-(7-chloro-4-quinolyl)-N,N-diethyl-pentane-1,4-diamine]
